From patent publication US11203601B2, “Tricyclic compounds as glycogen synthase kinase 3 (GSK3) inhibitors and uses thereof” (The Broad Institute, Inc., priority 2017, dated 2021)
≈ marks a conversion by molar mass, not a printed value.

Assays:
GSK3α [1] = target: T1, GSK3α (Homo sapiens (Human), UniProt P49840); assay: Mobility shift microfluidics assay; type: biochemical
Procedure: (§6) Reactions were terminated by the addition of 10 mM ethylenediaminetetraacetic acid (EDTA). Substrate and product were separated electrophoretically, and fluorescence intensity of the substrate and product was determined by Labchip EZ Reader II (Caliper Life Sciences). The kinase activity was measured as percent conversion. The reactions were performed in duplicate for each sample. […] The results were analyzed by Genedata Assay Analyzer. The percent inhibition was plotted against the compound concentration, and the IC50 value was determined from the logistic dose-response curve fitting. Values are the average of at least three experiments.

GSK3β [2] = target: T2, GSK3β (Homo sapiens (Human), UniProt P49841); assay: Mobility shift microfluidics assay; type: biochemical; conditions: 4.3 μM ATP, 60 minutes at room temperature
T2 sequence (P49841 whole entry): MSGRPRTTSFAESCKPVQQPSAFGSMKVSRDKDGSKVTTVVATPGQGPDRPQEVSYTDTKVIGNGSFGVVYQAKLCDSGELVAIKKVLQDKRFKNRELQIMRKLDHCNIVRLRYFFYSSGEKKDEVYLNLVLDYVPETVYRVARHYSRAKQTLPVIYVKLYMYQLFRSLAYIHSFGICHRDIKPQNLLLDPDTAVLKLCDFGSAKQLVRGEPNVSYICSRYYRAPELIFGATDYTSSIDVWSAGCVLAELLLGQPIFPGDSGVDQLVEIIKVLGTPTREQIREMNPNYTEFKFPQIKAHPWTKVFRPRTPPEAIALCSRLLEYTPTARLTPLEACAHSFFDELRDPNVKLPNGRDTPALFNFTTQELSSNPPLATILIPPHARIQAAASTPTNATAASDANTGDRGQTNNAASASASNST
Procedure: as §6

Plasma stability, mouse = type: in vitro ADME, mouse (CD-1); conditions: mouse plasma, 5 μM, 5 hours at 37° C.
Procedure: (§1) Stability of compound in plasma was tested in duplicate by incubating compound at 5 μM for 5 hours at 37° C. Compound level at 5 hours was compared to level at 0 hours, and percent remaining was calculated. Binding to plasma proteins was tested in duplicate by incubating compound in plasma at 5 μM for 5 hours at 37° C. in the Rapid Equilibrium Dialysis (RED) Device. Compound level in plasma compartment was compared to compound level in buffer compartment to calculate percent bound. Order by selecting Plasma Stability and Plasma Protein Binding in Prometheus, checking boxes for desired species.
(§2) Available species: human, mouse (CD-1), and rat (Sprague-Dawley). Compound requirements: 15 μL of a 10 mM DMSO solution. Incubation time: 5 hours at 37° C. Test Concentration: 5 μM.

Plasma stability, human = type: in vitro ADME; conditions: human plasma, 5 μM, 5 hours at 37° C.
Procedure: as §1, §2

[3] = Plasma protein binding (RED), mouse; type: in vitro ADME, mouse (CD-1); conditions: CD-1, 5 hours at 37° C., read-out: Plasma Protein Binding (Mouse, % bound) (converted)
[4] = Plasma protein binding (RED), human; type: in vitro ADME; conditions: 5 hours at 37° C., read-out: Plasma Protein Binding (Human, % bound) (converted)
Procedure: as §1, §2

[5] = Liver microsomal stability, mouse; type: in vitro ADME, mouse (CD-1); conditions: 1 μM, 60 minutes at 37° C.
Procedure: (§3) Stability of compound in liver microsomes was tested in duplicate by incubating compound at 1 μM for 60 minutes at 37° C. Compound level at 60 minutes was compared to level at 0 minutes, and percent remaining was calculated. Order by selecting Microsomal Stability in Prometheus, checking boxes for desired species.
(§4) Available species: human, mouse (CD-1), and rat (Sprague-Dawley). Compound requirements: 5 μL of a 10 mM DMSO solution. Incubation time: 60 minutes at 37° C. Test Concentration: 1 μM.
(§5) Microsomes with NADPH without compound-matrix interference. Microsomes plus compound without NADPH-non-enzymatic instability.

[6] = Liver microsomal stability, human; type: in vitro ADME; conditions: 1 μM, 60 minutes at 37° C.
Procedure: as §3, §4, §5

Solubility in PBS = conditions: 23 °C, aqueous buffer, thermodynamic from solid
Procedure: Solubility of compound was tested in triplicate by diluting a 10 mM DMSO solution with PBS. Maximum concentration of compound in solution was 100 μM.
Solubility of compound was tested in triplicate by drying down a 10 mM DMSO solution and then attempting to reconstitute in 100% PBS. Maximum concentration of compound in solution was 500 μM.
Compound requirements (1% DMSO in PBS): 30 μL of a 10 mM DMSO solution. Compound requirements (PBS-only): 60 μL of a 10 mM DMSO solution. Equilibration time: 18 hours at room temperature.

GSK3β [7] = target: T2, GSK3β; assay: GSK3 beta biochemical assay (TR-FRET)
Procedure: (§7) 1 nM enzyme, 200 nM biotinylated peptide
(§8) 4 μM ATP (GSK3 alpha) or 2 μM ATP (GSK3 beta)
(§9) The reaction volume is 10 μL, and the final percent DMSO is 1%. The total volume of DMSO is therefore 100 nL. It is critical that the percentage of DMSO be controlled and consistent across the plate. […] The High control is with all assay components but no inhibitor, the low control is with all assay components but no enzyme.
(§10) Make 2× detection reagents in Invitrogen TR-FRET detection buffer for final 20 nM Strepavidin-d2, 1 nM Tb^2+-pSer641 antibody (using 20 μl as final volume). 2× detection=40 nM Strepavidin-d2, 2 nM Tb^2+-pSer641 antibody.
(§11) XLFit is used for results which are archived into a database. The data is normalized as a percentage of uninhibited control minus max inhibited controls.

GSK3α [8] = target: T1, GSK3α; assay: GSK3 alpha biochemical assay (TR-FRET)
Procedure: as §7, §8, §9, §10, §11

T1 sequence (P49840 whole entry): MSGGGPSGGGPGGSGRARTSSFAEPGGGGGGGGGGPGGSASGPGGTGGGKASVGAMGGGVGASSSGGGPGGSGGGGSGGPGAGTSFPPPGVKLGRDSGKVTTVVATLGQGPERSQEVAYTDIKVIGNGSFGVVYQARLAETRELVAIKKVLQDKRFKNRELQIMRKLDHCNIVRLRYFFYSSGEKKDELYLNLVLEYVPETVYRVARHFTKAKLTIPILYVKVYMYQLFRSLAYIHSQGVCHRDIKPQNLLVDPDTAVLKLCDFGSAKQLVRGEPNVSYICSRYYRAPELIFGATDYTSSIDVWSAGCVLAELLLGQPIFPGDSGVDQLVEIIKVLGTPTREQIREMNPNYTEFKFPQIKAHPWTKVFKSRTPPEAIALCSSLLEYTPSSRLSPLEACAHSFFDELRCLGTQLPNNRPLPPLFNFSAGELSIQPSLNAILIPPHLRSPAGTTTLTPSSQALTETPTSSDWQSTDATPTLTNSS

Compound | IC50 (GSK3α [1]) | IC50 (GSK3β [2]) | IC50 (GSK3β [7]) | IC50 (GSK3α [8]) | further results
CC1(C)CC(=O)C2=C(C1)Nc1ncsc1[C@@]2(C)c1ccccc1 | 18500 nM | 28600 nM |  |  | 
CC1(C)CC(=O)C2=C(C1)Nc1ncsc1[C@]2(C)c1cccc(F)c1 | 203 nM | 455 nM |  |  | 
CC1(C)CC(=O)C2=C(C1)Nc1ncsc1[C@@]2(C)c1cccc(F)c1 | 6230 nM | 12500 nM |  |  | 
CC[C@]1(c2ccccc2)C2=C(CC(C)(C)CC2=O)Nc2ncsc21 | > 30000 nM | > 30000 nM |  |  | 
CC[C@]1(c2cccc(OC)c2)C2=C(CC(C)(C)CC2=O)Nc2ncsc21 | 10600 nM | 10500 nM |  |  | 
CC[C@@]1(c2ccccc2)C2=C(CC3(CCCCC3)CC2=O)Nc2ncsc21 | 155 nM | 447 nM |  |  | 
CC[C@]1(c2ccccc2)C2=C(CC3(CCCCC3)CC2=O)Nc2ncsc21 | 3660 nM | 1890 nM |  |  | 
CC[C@@]1(c2cccc(Cl)c2)C2=C(CC(C)(C)CC2=O)Nc2ncsc21 |  |  |  |  | Plasma Stability (Mouse, % remaining) (Plasma stability, mouse): 98.1%; Plasma Stability (Human, % remaining) (Plasma stability, human): 98.7%; fraction unbound at 5 h, 5 μM [3]: 0.023; fraction unbound at 5 h, 5 μM [4]: 0.018; Mouse Liver Microsomal Stability, % remaining [5]: 11.1%; Human Liver Microsomal Stability, % remaining [6]: 0.0%; solubility thermodynamic at 18 h (Solubility in PBS): 37 µM (≈ 13.8 µg/mL)
CC[C@@]1(c2cccc(OC)c2)C2=C(CC(C)(C)CC2=O)Nc2ncsc21 |  |  |  |  | Plasma Stability (Mouse, % remaining) (Plasma stability, mouse): 97.0%; Plasma Stability (Human, % remaining) (Plasma stability, human): 98.3%; fraction unbound at 5 h, 5 μM [3]: 0.077; fraction unbound at 5 h, 5 μM [4]: 0.025; Mouse Liver Microsomal Stability, % remaining [5]: 10.8%; Human Liver Microsomal Stability, % remaining [6]: 1.6%; solubility thermodynamic at 18 h (Solubility in PBS): 153 µM (≈ 56.4 µg/mL)
CC[C@]1(c2cccc(F)c2)C2=C(CC(C)(C)CC2=O)Nc2ncsc21 (single isomer, unassigned) | > 30000 nM | > 30000 nM |  |  | 
CC[C@@]1(c2cccc(Cl)c2)C2=C(CC(C)(C)CC2=O)Nc2ncsc21 (single isomer, unassigned) | 293 nM | 1180 nM |  |  | 
CC[C@]1(c2cccc(Cl)c2)C2=C(CC(C)(C)CC2=O)Nc2ncsc21 (single isomer, unassigned) | > 30000 nM | > 30000 nM |  |  | 
CC[C@@]1(c2cccc(OC)c2)C2=C(CC(C)(C)CC2=O)Nc2ncsc21 (single isomer, unassigned) | 24 nM | 110 nM |  |  | 
CCC1(c2ccccc2)C2=C(CC(C)(C)CC2=O)Nc2ncsc21 (single isomer, unassigned) [Compound 1-E1, 9-Ethyl-6,6-dimethyl-9-phenyl-5,6,7,9-tetrahydrothiazolo[4,5-b]quinolin-8(4H)-one] |  |  |  |  | IC50 (GSK3β [7]; GSK3β TR-FRET BIOCHEMICAL (TR-FRET) GMean IC50, 2 μM ATP (Km), 100 min at room temperature): > 5000 nM; IC50 (GSK3α [8]; GSK3α TR-FRET BIOCHEMICAL (TR-FRET) GMean IC50, 4 μM ATP (Km), 100 min at room temperature): > 5000 nM
CCC1(c2ccccc2)C2=C(Nc3ncsc31)C(C)CC(C)C2=O (stereo not shown) [Compound 2] |  |  | 353 nM | 130 nM | 
CCC1(c2ccccc2)C2=C(CCC(C)(C)C2=O)Nc2ncsc21 (stereo not shown) [Compound 3] |  |  | 951 nM | 254 nM | 
CCC1(c2ccccc2)C2=C(Nc3ncsc31)C(C)(C)CCC2=O (stereo not shown) [Compound 4] |  |  | 627 nM | 174 nM | 
CCC1(c2ccccc2)C2=C(CC3(CCCC3)CC2=O)Nc2ncsc21 (stereo not shown) [Compound 5] |  |  | 366 nM | 80 nM | 
CCC1(c2ccccc2)C2=C(CC(C)CC2=O)Nc2ncsc21 (stereo not shown) [Compound 6] |  |  | 684 nM | 194 nM | 
CCC1CC(=O)C2=C(C1)Nc1ncsc1C2(CC)c1ccccc1 (stereo not shown) [Compound 7] |  |  | 592 nM | 171 nM | 
CCC1(c2ccccc2)C2=C(CC(C(C)C)CC2=O)Nc2ncsc21 (stereo not shown) [Compound 8] |  |  | 927 nM | 365 nM | 
